According to US7655447B2, “ZSIG33-like polynucleotides” (ZymoGenetics, Inc., priority 2000, dated 2010):

System: antral portion of the stomach
Assay: Gastric contractility: distance between transducing crystals on the antral stomach
Type: in vivo, Sprague-Dawley rats
Conditions: urethane-anesthetized rats
Description: Two male Sprague-Dawley rats, approximately 12 weeks old (Harlan, Indianapolis, Ind.) are anesthetized with urethane and their stomachs are exposed through a small abdominal incision. Two 2.4 mm transducing crystals (Sonometrics, Ontario, Canada) are placed on the antral portion of the stomach such that circular contractions could be monitored as a change in the distance between the two crystals. The crystals are attached with VETBOND TISSUE ADHESIVE (3M, St. Paul, Minn.). […] The amplitude of the NE-induced decrease is approximately 50% of the acetylcholine-induced increase in distance. Both responses are transient. A negative control of 10 μl of phosphate buffer solution (PBS) applied topically between the crystals has no effect. […] The ZS33LP at 1 μg induces a sustained, rhythmic increase and decrease in crystal distance.

NC[C@H](O)c1ccc(O)c(O)c1 [norepinephrine]
change in the distance between the two crystals (circular contractions) (10 μl of 1 μM applied topically to the stomach between the crystals): reduction in the distance between the two crystals | amplitude of the NE-induced decrease relative to the acetylcholine-induced increase in distance (10 μl of 1 μM applied topically): approximately 50%
